{"source": "patent US8168861B2", "about": "“Compositions and methods for increasing cellulose production” (The Regents of the University of California, priority 2008, dated 2012)", "key": {"[1]": {"test_system": "Arabidopsis thaliana hypocotyl", "experiment": "Dark-grown hypocotyl growth of SRF mutants on isoxaben media", "assay_type": "in vivo", "method": "Data is taken from three independent experiments. Data is from hypocotyl lengths relative to wild type plants grown on the same plate and relative to mutants grown on DMSO control media. Student's t-test: *=p<0.05.\nArabidopsis thaliana ecotype Columbia-0 (Col-0) was used. Before plating seeds were surface sterilized. First, the seeds were washed in 95% ethanol for 10 minutes, which was removed then the sterilization solution was added (20% bleach, 0.05% Tween-20 (Sigma) and double distilled water) and shaken for 10 minutes. The sterilization solution was removed and the seeds were washed three times with sterile distilled water. The seeds were cold treated for 4 days at 4° C. after plating them on the plates. Two different growth media were prepared for these experiments. For the control conditions: one-half strength Murashige and Skoog (MS) salts (Sigma), 0.5% sucrose (Sigma), 0.8% phyto agar (Research Products International Corp.), 1×B5 (1,000× in double distilled water: 10% myo-inositol, 0.1% nicotinic acid and 0.1% pyroxidine HCl) and 1× Thiamin (2,000× in double distilled water: 0.2% thiamin HCl). The other growth media contained either no sucrose but all other components remained the same. Plants used in Fourier Transform Infrared (FT-IR) Microspectroscopy and hypocotyl length, were only grown on sucrose-deprived media in the dark for four days after cold treatment. For selection of mutants from the Arabidopsis Biological Resource Center (ARBC), they were first plated onto MS media containing 50 μg/ml Kanamycin to select for insertions containing the NTPII (Kanamycin resistance) gene. In the case this resistance is lost the seeds were also sown onto regular MS media containing no antibiotic and then transferred to soil after one week. Plants were then grown on soil for 2-3 weeks after transfer from the plates and they were examined for status of the T-DNA insertion. Only homozygous T3 and T4 knockout mutants were used for the following experiments.\nIsoxaben is a specific inhibitor of cellulose synthesis by affecting the function of the CesA proteins involved in primary cell wall synthesis, such as CesA3 and CesA6 (Scheible et al., 2001; Persson et al., 2007). Because SRF7 in particular is co-expressed with these same CesA genes the effects of isoxaben on SRF mutants was examined. […] The results which are in agreement with the dark-grown hypocotyl phenotypes of the srf mutants supports the hypothesis that SRF6 and SRF7 regulate CesA-mediated synthesis of the primary cell wall"}, "[2]": {"test_system": "CesA and RLK gene expression", "conditions": "isoxaben treatment, cited from earlier work"}}, "data": [{"smiles": "CCC(C)(CC)c1cc(NC(=O)c2c(OC)cccc2OC)on1", "note": "[isoxaben]", "values": [{"measurement": "response of hypocotyl length to isoxaben vs wild type", "setting": "[1]; dominant negative of SRF7, 0.5 and 1 nM isoxaben", "value": "increased resistance"}, {"measurement": "response of hypocotyl length to isoxaben vs wild type", "setting": "[1]; dominant negative of SRF7, 5 and 10 nM isoxaben", "value": "increase sensitivity"}, {"measurement": "response of hypocotyl length to isoxaben vs wild type", "setting": "[1]; overexpression of SRF7 in srf7-1 mutant", "value": "wild type resistance"}, {"measurement": "response of hypocotyl length to isoxaben vs wild type", "setting": "[1]; srf6-1 and srf7-1 mutants (extracellular domain insertion), up to 10 μM, p<0.05", "value": "significantly more resistant"}, {"measurement": "response of hypocotyl length to isoxaben vs wild type", "setting": "[1]; srf6-2 and srf7-3 mutants", "value": "increased sensitivity"}, {"measurement": "response of hypocotyl length to isoxaben vs wild type", "setting": "[1]; srf7-2 mutant", "value": "no difference in isoxaben response"}, {"measurement": "SRF6 gene expression", "setting": "[2]; FIG. 10B", "value": "reduced gene expression"}, {"measurement": "primary cell wall CesA gene expression", "setting": "[2]; FIG. 10D", "value": "reduces primary cell wall CesA gene expression"}, {"measurement": "secondary cell wall CesA gene expression", "setting": "[2]; FIG. 10D", "value": "not the secondary cell wall CesAs"}]}]}
